From US11903994B2, “Dosing regimens” (Apellis Pharmaceuticals, Inc., priority 2015, dated 2024)
Non-standard residues stand in square brackets, D forms with d. Trp(5-F) = N[C@@H](Cc1c[nH]c2ccc(F)cc12)C(=O)O; Trp(6-F) = N[C@@H](Cc1c[nH]c2cc(F)ccc12)C(=O)O; Bpa = N[C@@H](Cc1ccc(C(=O)c2ccccc2)cc1)C(=O)O; 1Nal = N[C@@H](Cc1cccc2ccccc12)C(=O)O; 2Nal = N[C@@H](Cc1ccc2ccccc2c1)C(=O)O; Igl = N[C@H](C(=O)O)C1Cc2ccccc2C1

Assays:
[1] = Inhalation studies, single and repeated dosing; type: in vivo, cynomolgus monkey; details: inhaled CA28
Experimental: (§1) Inhalation studies of single dose or repeated dosing were conducted in dog and cynomolgus monkey. […] These doses were 25 mg/kg/d in a 7 day repeated dose study in the dog, 80 mg/kg in a single dose study in the monkey, and 30 mg/kg/day in a 14 day repeated dose in the monkey.

[2] = Phase 1 single and multiple ascending dose trial, inhaled (nebulized), healthy volunteers; type: in vivo, human
Experimental: In the single ascending dose part of the trial, 16 subjects were enrolled in four cohorts of four subjects each.
Four subjects were enrolled in the first cohort of the multiple ascending dose part of the trial. These subjects were to receive 14 consecutive days of treatment with a 60 mg/day dose of the drug. […] The trial was paused and subsequently resumed, with subjects receiving 30 mg/day. […] The trial was then terminated.

[3] = Inhalation study, repeated dosing; type: in vivo, dog; details: 25 mg/kg/d, 7 day repeated dose, inhaled CA28
Experimental: as §1

complement activation = details: relative to compstatin amidated at the C-terminus; published data; cited from earlier work

Compound | Activity over compstatin (complement activation) [xmore] | further results
CC[C@H](C)[C@H](NC(C)=O)C(=O)N[C@H]1CSSC[C@@H](C(=O)N[C@H](C(N)=O)[C@@H](C)O)NC(=O)[C@H](CCCNC(=N)N)NC(=O)[C@H](Cc2cnc[nH]2)NC(=O)[C@H](C)NC(=O)CNC(=O)[C@H](Cc2c[nH]c3ccccc23)NC(=O)[C@H](CC(=O)O)NC(=O)[C@H](CCC(N)=O)NC(=O)[C@H](Cc2cn(C)c3ccccc23)NC(=O)[C@H](C(C)C)NC1=O [CA28] | – | findings at the highest inhaled dose tested ([1]; 30 mg/kg/day, 14 day repeated dose): no drug-related findings; findings at the highest inhaled dose tested ([1]; 80 mg/kg, single dose): no drug-related findings; adverse event possibly related to the pharmacology of the drug ([2]; inhaled CA28 30 mg/day, after 10 days of treatment): Another subject developed signs and symptoms consistent with a potential bacterial infection; adverse event possibly related to the pharmacology of the drug ([2]; inhaled CA28 60 mg/day, following nine days of treatment): one subject developed signs and symptoms consistent with a potential bacterial infection; findings at the highest inhaled dose tested [3]: no drug-related findings
Ac-ICV(1-Nal)QDWGAHRCT-COOH (Ac-ICV[1Nal]QDWGAHRCT-OH; not fully specified (bridges); printed as Ac-ICV(1-Nal)QDWGAHRCT-COOH; cysteine pairing not given here) [Ac V4(1-Nal)/H9A-OH] | 30 | –
Ac-ICV(2-Nal)QDWGAHRCT-CONH2 (Ac-ICV[2Nal]QDWGAHRCT-NH2; not fully specified (bridges); printed as Ac-ICV(2-Nal)QDWGAHRCT-CONH2; cysteine pairing not given here) [Ac-V4(2-Nal)/H9A] | 99 | –
Ac-ICV(2-Nal)QDWGAHRCT-COOH (Ac-ICV[2Nal]QDWGAHRCT-OH; not fully specified (bridges); printed as Ac-ICV(2-Nal)QDWGAHRCT-COOH; cysteine pairing not given here) [Ac V4(2-Nal)/H9A-OH] | 38 | –
Ac-ICV(2-lgl)QDWGAHRCT-CONH2 (Ac-ICV[Igl]QDWGAHRCT-NH2; not fully specified (bridges); printed as Ac-ICV(2-lgl)QDWGAHRCT-CONH2; cysteine pairing not given here) [Ac-V42lgl/H9A] | 39 | –
Ac-ICV(2-lgl)QDWGAHRCT-COOH (Ac-ICV[Igl]QDWGAHRCT-OH; not fully specified (bridges); printed as Ac-ICV(2-lgl)QDWGAHRCT-COOH; cysteine pairing not given here) [Ac-V42lgl/H9A-OH] | 37 | –
Ac-ICV(5-methyl-W)QDWGAHRCT-CONH2 [Ac-V4(5-MeW)/H9A] | 67 | –
Ac-ICV(5fW)QDWGAHRCT-CONH2 [Ac-V4(5fW)/H9A] | 31 | –
Ac-ICV(Bpa)QDWGAHRCT-CONH2 (Ac-ICV[Bpa]QDWGAHRCT-NH2; not fully specified (bridges); printed as Ac-ICV(Bpa)QDWGAHRCT-CONH2; cysteine pairing not given here) [Ac-V4(Bpa)/H9A] | 86 | –
Ac-ICV(Bpa)QDWGAHRCT-COOH (Ac-ICV[Bpa]QDWGAHRCT-OH; not fully specified (bridges); printed as Ac-ICV(Bpa)QDWGAHRCT-COOH; cysteine pairing not given here) [Ac-V4(Bpa)/H9A-OH] | 49 | –
Ac-ICVDhtQDWGAHRCT-COOH [Ac-V4Dht/H9A-OH] | 5 | –
Ac-ICVVQDWGHHRCT-CONH2 [Ac-compstatin] | 3 | –
Ac-ICVWQD(5fW)GAHRCT-CONH2 [Ac-V4W/W7(5fW)/H9A] | 121 | –
Ac-ICVWQDWGAHRCT-CONH2 [Ac-V4W/H9A] | 45 | –
Ac-ICVWQDWGAHRCdT-COOH [Ac-V4W/H9A/T13dT-OH] | 55 | –
Ac-ICVYQDWGAHRCT-CONH2 [Ac-V4Y/H9A] | 14 | –
H-GICV(5fW)QD(5fW)GAHRCTN-COOH (H-GICV[Trp(5-F)]QD[Trp(5-F)]GAHRCTN-OH; not fully specified (bridges); cysteine pairing not given here) [G/V4(5f-W)/W7(5fW)/H9A + N-OH] | 112 | –
H-GICV(6fW)QD(6fW)GAHRCTN-COOH (H-GICV[Trp(6-F)]QD[Trp(6-F)]GAHRCTN-OH; not fully specified (bridges); cysteine pairing not given here) [+G/V4(6fW)/W7(6fW)H9A + N-OH] | 126 | –
